Converted amounts (≈) assume the structure as drawn. One block for each compound: values may come before it. The source made the active and inactive calls. The calls are words filed in the database; no cut-off is given here.
Key:
[1] = biological target: Hypoxia-inducible factor 1-alpha (Mus musculus) (UniProt Q61221); experiment: Inhibition of HIF-1alpha in mouse C2C12 cells transfected with PDGF-B driven firefly luciferase gene assessed as transcriptional activity pretreated with compound for 12 hr followed by hypoxic condition for 24 hrs by dual luciferase reporter gene assay; format: cell-based; settings: time 36.0 hrs
Sequence of Hypoxia-inducible factor 1-alpha (Mus musculus) (Q61221 whole entry): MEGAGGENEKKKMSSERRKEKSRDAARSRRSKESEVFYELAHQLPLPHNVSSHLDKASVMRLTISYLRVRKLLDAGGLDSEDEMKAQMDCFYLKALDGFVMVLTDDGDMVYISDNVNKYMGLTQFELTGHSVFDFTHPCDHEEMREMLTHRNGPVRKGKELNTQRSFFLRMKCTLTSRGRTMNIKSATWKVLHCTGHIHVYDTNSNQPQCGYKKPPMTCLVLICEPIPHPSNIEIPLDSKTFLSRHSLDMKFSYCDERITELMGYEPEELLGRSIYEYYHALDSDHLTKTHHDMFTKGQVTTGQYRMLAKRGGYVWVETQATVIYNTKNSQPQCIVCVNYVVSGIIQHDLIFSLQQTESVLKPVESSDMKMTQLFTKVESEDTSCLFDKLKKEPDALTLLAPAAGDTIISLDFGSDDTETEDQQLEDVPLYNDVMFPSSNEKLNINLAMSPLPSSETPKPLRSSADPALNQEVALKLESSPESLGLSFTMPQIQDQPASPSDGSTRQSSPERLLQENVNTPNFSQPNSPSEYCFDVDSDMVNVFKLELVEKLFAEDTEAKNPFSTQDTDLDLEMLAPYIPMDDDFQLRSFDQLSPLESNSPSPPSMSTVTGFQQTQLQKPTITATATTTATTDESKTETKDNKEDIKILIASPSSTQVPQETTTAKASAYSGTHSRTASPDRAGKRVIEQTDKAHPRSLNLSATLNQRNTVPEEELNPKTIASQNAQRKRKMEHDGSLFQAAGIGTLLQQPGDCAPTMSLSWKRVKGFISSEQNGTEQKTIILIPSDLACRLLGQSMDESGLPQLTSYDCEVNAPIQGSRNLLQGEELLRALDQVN

[2] = biological target: Hypoxia-inducible factor 1-alpha (Mus musculus) (UniProt Q61221); experiment: Inhibition of HIF-1alpha in mouse C2C12 cells transfected with HRE-driven firefly luciferase gene assessed as fold change in transcriptional activity at 300 uM pretreated with compound for 12 hr followed by hypoxic condition for 24 hrs by dual luciferase reporter gene assay; format: cell-based; settings: time 36.0 hrs
[3] = Permeability coefficient across apical to basolateral side in human Caco-2 cells by HPLC-UV analysis
[4] = Permeability coefficient across basolateral to apical side in human Caco-2 cells by HPLC-UV analysis
[5] = Octanol/Water partition coefficient, log P of the compound by HPLC-UV analysis
[6] = Water solubility of the compound by HPLC analysis
[7] = Efflux ratio of Apparent permeability across basolateral to apical side over apical to basolateral side in human Caco-2 cells
[8] = Dissociation constant, pKa of compound by UV-visible spectrometric method; format: physicochemical
C2C12 [9] = experiment: Apoptotic rate in hyperglycemia-treated mouse C2C12 cells assessed as late apoptotic cells at 30 uM by AnnexinV-FITC/PI staining based flow cytometric analysis (reference value: 10.44 %); format: functional
C2C12 [10] = experiment: Angiogenic activity in mouse C2C12 cells assessed as reversal of hyperglycemia-induced reduction in total cell number at 300 uM measured after 36 hrs by EdU-incorporation assay; format: functional, cell-based
C2C12 [11] = experiment: Induction of proliferation of hyperglycemia-induced mouse C2C12 cell apoptosis assessed as decrease in Annexin V/PI-positive cells at 30 uM pretreated with compound under hyperglycemia condition for 12 hr followed by hypoxia for 24 hrs; format: functional, cell-based; settings: time 36.0 hrs
C2C12 [12] = experiment: Apoptotic rate in hyperglycemia-treated mouse C2C12 cells assessed as viable cells at 15 uM by AnnexinV-FITC/PI staining based flow cytometric analysis (reference value: 81.90 %); format: functional; settings: read-out: Activity
C2C12 [13] = experiment: Apoptotic rate in hyperglycemia-treated mouse C2C12 cells assessed as necrotic cells at 30 uM by AnnexinV-FITC/PI staining based flow cytometric analysis (reference value: 0.56 %); format: functional
C2C12 [14] = experiment: Apoptotic rate in hyperglycemia-treated mouse C2C12 cells assessed as early apoptotic cells at 15 uM by AnnexinV-FITC/PI staining based flow cytometric analysis (reference value: 7.10 %); format: functional
C2C12 [15] = experiment: Induction of proliferation of hyperglycemia-induced mouse C2C12 cell death assessed as increase in number of EdU-positive cells at 7.5 to 300 uM pretreated with compound under hyperglycemia condition for 12 hr followed by hypoxia for 24 hrs; format: functional, cell-based; settings: dose 7.5-300 µM, time 36.0 hrs
C2C12 [16] = experiment: Angiogenic activity in mouse C2C12 cells assessed as accumulation HIF-1alpha protein expression at 300 uM by Western blot analysis; format: functional, cell-based
C2C12 [17] = experiment: Angiogenic activity in mouse C2C12 cells assessed as accumulation PDGF-BB protein expression at 300 uM by Western blot analysis; format: functional, cell-based
C2C12 [18] = experiment: Apoptotic rate in hyperglycemia-treated mouse C2C12 cells assessed as necrotic cells at 15 uM by AnnexinV-FITC/PI staining based flow cytometric analysis (reference value: 0.56 %); format: functional
C2C12 [19] = experiment: Angiogenic activity in mouse C2C12 cells assessed as reversal of hyperglycemia-induced reduction in total cell number at 30 uM measured after 24 hrs by EdU-incorporation assay; format: functional, cell-based
C2C12 [20] = experiment: Apoptotic rate in hyperglycemia-treated mouse C2C12 cells assessed as late apoptotic cells at 15 uM by AnnexinV-FITC/PI staining based flow cytometric analysis (reference value: 10.44 %); format: functional
C2C12 [21] = experiment: Angiogenic activity in mouse C2C12 cells assessed as reversal of hyperglycemia-induced reduction in total cell number at 100 uM measured after 36 hrs by EdU-incorporation assay; format: functional, cell-based
C2C12 [22] = experiment: Induction of proliferation of hyperglycemia-induced mouse C2C12 cell apoptosis assessed as decrease in Annexin V/PI-positive cells at 15 uM pretreated with compound under hyperglycemia condition for 12 hr followed by hypoxia for 24 hrs; format: functional, cell-based; settings: time 36.0 hrs
C2C12 [23] = experiment: Angiogenic activity in mouse C2C12 cells assessed as accumulation ANG1 protein expression at 300 uM by Western blot analysis; format: functional, cell-based
C2C12 [24] = experiment: Angiogenic activity in mouse C2C12 cells assessed as accumulation VEGF-A protein expression at 300 uM by Western blot analysis; format: functional, cell-based
C2C12 [25] = experiment: Apoptotic rate in hyperglycemia-treated mouse C2C12 cells assessed as viable cells at 30 uM by AnnexinV-FITC/PI staining based flow cytometric analysis (reference value: 81.90 %); format: functional; settings: read-out: Activity
C2C12 [26] = experiment: Angiogenic activity in mouse C2C12 cells assessed as reversal of hyperglycemia-induced reduction in total cell number at 7.5 uM measured after 36 hrs by EdU-incorporation assay; format: functional, cell-based
C2C12 [27] = experiment: Angiogenic activity in mouse C2C12 cells assessed as reversal of hyperglycemia-induced reduction in total cell number at 15 uM measured after 36 hrs by EdU-incorporation assay; format: functional, cell-based
C2C12 [28] = experiment: Apoptotic rate in hyperglycemia-treated mouse C2C12 cells assessed as early apoptotic cells at 30 uM by AnnexinV-FITC/PI staining based flow cytometric analysis (reference value: 7.10 %); format: functional
C2C12 [29] = experiment: Induction of proliferation of hyperglycemia-induced mouse C2C12 cell death assessed as increase in number of EdU-positive cells at 15 uM pretreated with compound under hyperglycemia condition for 12 hr followed by hypoxia for 24 hrs; format: functional, cell-based; settings: time 36.0 hrs

inhibition [1]: Active
fold change (FC) [2]: 1.47
SMILES: OC[C@H]1O[C@@H](OCCc2ccc(F)cc2)[C@H](O)[C@@H](O)[C@@H]1O

inhibition [1]: Active
fold change (FC) [2]: 2.5
SMILES: COc1ccc(-c2cccc(O[C@@H]3O[C@H](CO)[C@@H](O)[C@H](O)[C@H]3O)c2)cc1

inhibition [1]: Active
fold change (FC) [2]: 1.69
SMILES: COc1ccc(CCO[C@@H]2O[C@H](CO)[C@@H](O)[C@H](O)[C@H]2O)cc1

Papp A→B [3]: 1.75 ×10⁻⁶ cm/s
Papp B→A [4]: 1.82 ×10⁻⁶ cm/s
logP [5]: 1.07
solubility [6]: 6710 µg/mL (≈ 17.8 mM)
fold change (FC) [2]: 0.78
efflux ratio [7]: 1.04
pKa [8]: > 14
SMILES: COc1ccc(Cc2ccccc2O[C@@H]2O[C@H](CO)[C@@H](O)[C@H](O)[C@H]2O)cc1 [SERGLIFLOZIN A]

HIF-1alpha inhibition call (active/inactive) [2]: Active
SMILES: OC[C@H]1O[C@@H](Oc2ccc(Cc3ccc(O)c(O)c3)cc2)[C@H](O)[C@@H](O)[C@@H]1O

Papp A→B [3]: 1.68 ×10⁻⁶ cm/s
Papp B→A [4]: 1.78 ×10⁻⁶ cm/s
inhibition [1]: Active
logP [5]: 1.02
solubility [6]: 1320 µg/mL (≈ 3.51 mM)
fold change (FC) [2]: 2.5
efflux ratio [7]: 1.06
pKa [8]: > 14
SMILES: COc1ccc(Cc2ccc(O[C@@H]3O[C@H](CO)[C@@H](O)[C@H](O)[C@H]3O)cc2)cc1
Activity (C2C12 [9]): 7.14%
Activity (C2C12 [10]): Active
Activity (C2C12 [11]): inactive
viability at 15 µM (C2C12 [12]): 83.5%
Activity (C2C12 [13]): 0.41%
Activity (C2C12 [14]): 5.4%
Activity (C2C12 [15]): inactive
inhibition (C2C12 [16]): Active
inhibition (C2C12 [17]): Active
Activity (C2C12 [18]): 0.49%
Activity (C2C12 [19]): Active
Activity (C2C12 [20]): 10.59%
Activity (C2C12 [21]): Active
Activity (C2C12 [22]): inactive
inhibition (C2C12 [23]): Active
inhibition (C2C12 [24]): Active
viability at 30 µM (C2C12 [25]): 89.2%
Activity (C2C12 [26]): inactive
Activity (C2C12 [27]): Active
Activity (C2C12 [28]): 3.21%
Activity (C2C12 [29]): Active

inhibition [1]: Active
SMILES: COc1ccc(C(C)(C)CO[C@@H]2O[C@H](CO)[C@@H](O)[C@H](O)[C@H]2O)cc1

inhibition [1]: Active
fold change (FC) [2]: 2.5
SMILES: COc1ccc(-c2ccc(O[C@@H]3O[C@H](CO)[C@@H](O)[C@H](O)[C@H]3O)cc2)cc1

Papp A→B [3]: 1.3 ×10⁻⁶ cm/s
Papp B→A [4]: 1.42 ×10⁻⁶ cm/s
logP [5]: 0.076
solubility [6]: 1640 µg/mL (≈ 4.53 mM)
efflux ratio [7]: 1.09
pKa [8]: 10.4
SMILES: OC[C@H]1O[C@@H](Oc2ccc(Cc3ccc(O)cc3)cc2)[C@H](O)[C@@H](O)[C@@H]1O

The remaining lines, values behind:

SMILES: OC[C@H]1O[C@@H](OCCCc2ccc(O)cc2)[C@H](O)[C@@H](O)[C@@H]1O
fold change (FC) [2]: 1.52

SMILES: O=S1(=O)OC(c2ccc(O)cc2)(c2ccc(O)cc2)c2ccccc21 [PHENOLSULFONPHTHALEIN]
Papp A→B [3]: 0.35 ×10⁻⁶ cm/s

SMILES: OC[C@H]1O[C@@H](CCCc2ccc(O)cc2)[C@H](O)[C@@H](O)[C@@H]1O
inhibition [1]: inactive

SMILES: C[C@H]1O[C@@H](O[C@H]2[C@@H](O)C[C@H](O[C@H]3[C@@H](O)C[C@H](O[C@H]4CC[C@@]5(C)[C@H](CC[C@@H]6[C@@H]5C[C@@H](O)[C@]5(C)[C@@H](C7=CC(=O)OC7)CC[C@]65O)C4)O[C@@H]3C)O[C@@H]2C)C[C@H](O)[C@@H]1O [DIGOXIN]
Papp A→B [3]: 1.33 ×10⁻⁶ cm/s
Papp B→A [4]: 14.7 ×10⁻⁶ cm/s
efflux ratio [7]: 11.1

SMILES: OC[C@H]1O[C@@H](OCC2(c3ccc(O)cc3)CCC2)[C@H](O)[C@@H](O)[C@@H]1O
inhibition [1]: Active
fold change (FC) [2]: 1.63

SMILES: OC[C@H]1O[C@@H](OCCc2ccccc2)[C@H](O)[C@@H](O)[C@@H]1O
inhibition [1]: Active
fold change (FC) [2]: 1.76

SMILES: CC(C)(CO[C@@H]1O[C@H](CO)[C@@H](O)[C@H](O)[C@H]1O)c1ccc(O)cc1
fold change (FC) [2]: 1.73

— ChEMBL document CHEMBL5038635, “Discovery of Salidroside-Derivated Glycoside Analogues as Novel Angiogenesis Agents to Treat Diabetic Hind Limb Ischemia” (J Med Chem, 2022)
